Patent publication US11186577B2, “Vasopressin receptor antagonists and products and methods related thereto” (BlackThorn Therapeutics, Inc., priority 2017, dated 2021)
Where two headings read alike, the source gives them in different places.

Experiments:
[1] = test system: wild-type (WT) MDCK cells; experiment: MDR1-MDCK effective efflux assay (Transwell, 10 μM, 1 hour), wild-type MDCK cells; format: in vitro ADME; settings: for Papp AB WT: wild-type MDCK cells, apical to basolateral (A>B), 10 μM, 1 hour; for WT ER: MDCK
Experimental: (§1) The MDR1-MDCK effective efflux assay was performed as described in the BioFocus Standard Operating Procedure, ADME-SOP-56. Both wild-type (WT) and MDR1-MDCK cells (Solvo Biotechnology) were seeded onto 24-well Transwell plates at 2.35×10^5 cells per well and used in confluent monolayers after a 3 day culture at 37° C. under 5% CO2. For both cell types, test and control compounds (propranolol, vinblastine) were added (10 μM, 0.1% DMSO final, n=2) to donor compartments of the Transwell plate assembly in assay buffer (Hanks balanced salt solution supplemented with 25 mM HEPES, adjusted to pH 7.4) for both apical to basolateral (A>B) and basolateral to apical (B>A) measurements. Incubations were performed at 37° C., with samples removed from both donor and acceptor chambers at T=0 and 1 hour and compound analysed by mass spectrometry (LC-MS/MS) including an analytical internal standard.
(§2) Where V is the volume of each Transwell compartment (apical 125 basolateral 600 and concentrations are the relative MS responses for compound (normalized to internal standard) in the donor chamber before incubation and acceptor chamber at the end of the incubation. Area=area of cells exposed for drug transfer (0.33 cm2).
(§3) Efflux ratios (Papp B>A/Papp A>B) were calculated for each compound from the mean Papp values in each direction for both wild-type and MDR1-MDCK cells.
(§4) In order to confirm the involvement of MDR1 in any efflux seen, an “effective efflux ratio” (EER) was calculated by comparing compound efflux ratios (ER) in the two cell types, i.e. EER=ER(MDR1−MDCK)/ER(wild-type MDCK)
(§5) This ratio illustrates the effect of the over-expressed MDR1 normalised for the background movement of compound through the wild-type cells.
(§6) Lucifer Yellow (LY) was added to the apical buffer in all wells to assess viability of the cell layer. Compound recovery from the wells was determined from MS responses (normalized to internal standard) in donor and acceptor chambers at the end of incubation compared to response in the donor chamber pre-incubation.

[2] = target: human Arginine Vasopressin Receptor 1a (AVPR1a) (Homo sapiens (Human), UniProt P37288); experiment: Vasopressin V1A receptor antagonist assay (AVP-evoked calcium, FLIPR, CHO-AVPR1a cells); format: cell-based; settings: read-out: V1a IC50
Method in brief: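 CHO cells expressing human AVPR1a, Calcium-6 dye loaded 60-90 min, preincubated with compound 15 min at 37° C., then challenged with AVP at its daily-determined EC80. FLIPR fluorescence; 10-point 1:3 series from 3 μM, duplicates.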

[3] = test system: MDR1-MDCK cells; experiment: MDR1-MDCK effective efflux assay (Transwell, 10 μM, 1 hour), MDR1-MDCK cells; format: in vitro ADME; settings: for Papp AB MDR1: MDR1-MDCK cells, apical to basolateral (A>B), 10 μM, 1 hour; for MDR1 EER / MDR1 ER: MDCK-MDR1
Experimental: as §1, §2, §3, §4, §5, §6

[4] = MDR1-MDCK effective efflux assay (Transwell, 10 μM, 1 hour), wild-type MDCK cells; format: in vitro ADME; settings: dog, MDCK
Experimental: as §1, §2, §3, §4, §5, §6

[5] = test system: MDR1 (P-glycoprotein); experiment: MDR1-MDCK effective efflux assay (Transwell, 10 μM, 1 hour), MDR1-MDCK cells; format: in vitro ADME; settings: dog
Experimental: as §1, §2, §3, §4, §5, §6

[6] = target: human Oxytocin Receptor (hOTR) (Homo sapiens (Human), UniProt P30559); experiment: Oxytocin receptor antagonist assay (oxytocin-evoked calcium, FLIPR, CHEM-1-hOTR cells); format: cell-based; settings: read-out: OT IC50
Experimental: This assay was performed in CHEM-1 cells expressing the human Oxytocin Receptor (hOTR) to determine the inhibitory effect of the compounds of the invention on the human Oxytocin receptor. Oxytocin evokes an increase in intracellular calcium in CHEM-1-hOTR cells which is measured in a fluorescence assay on the FLIPR^TETRA using calcium sensitive dyes. Test compounds were assessed for their ability to affect the magnitude of the response to oxytocin, with antagonists showing a concentration-dependent reduction in the oxytocin-mediated fluorescence.
CHEM-1-hOTR ready was used to assay frozen cells (Eurofins #HTS090RTA) which are supplied with a proprietary Media Component.
Cells were thawed in a 37° C. water bath and diluted with the supplied Media Component to a final volume of 10 ml. The cell suspension was centrifuged at 1000 rpm for 3 min at room temperature and the supernatant was discarded. The cell pellet was resuspended in Media Component (10.5 ml) and the cells (25 μL) were dispensed into a poly-D-lysine coated black, clear bottomed, 384-well plate. The plates were incubated overnight at 37° C., 5% CO2.
At the start of each assay day the potency of oxytocin was assessed and an EC80 concentration was determined for subsequent compound profiling. Assays were performed using a two-step addition protocol on the FLIPR^TETRA; first addition of 5 μl of control or test compound at 10× final in assay buffer with 15 min incubation at 37° C., 5% CO2 followed by 10 μl of oxytocin at 6× final concentration in assay buffer. Changes in fluorescence were monitored for 3 min after both additions on the FLIPR^TETRA using 470-495 nm excitation and 515-575 nm emission wavelengths. The assay buffer consisted of HBSS (+Ca/+Mg) supplemented with 20 mM HEPES, and for the preparation of the oxytocin agonist only, 0.1% w/v bovine serum albumin. The assay was initiated by the removal of growth media from the cells and replaced with 45 μl of Calcium-6 dye (Molecular Devices) prepared at 1× in assay buffer. Cells were loaded with dye for 60-90 min at 37° C., 5% CO2 before initiation of the FLIPR^TETRA protocol. […] For compound profiling, test compounds were first serially diluted in DMSO (10-point curve, 1:3 dilutions) then diluted 33.3-fold in assay buffer prior to addition to the dye loaded cells on the FLIPR^TETRA. At the end of the incubation period 10 μl of oxytocin in assay buffer containing 0.1% BSA was added at the previously determined EC80 concentration.
In-plate controls for the assay include a L-368,899 concentration-response curve as the reference OTR antagonist and an oxytocin concentration-response curve to confirm the reproducibility of the EC80 used for the compound challenge.

[7] = MDCK-MDR1, pH 7.4, Papp AB MDR1
[8] = pH 7.4, wild-type MDCK cells, apical to basolateral (A>B), 10 μM, 1 hour, read-out: Papp AB WT
[9] = MDCK-MDR1, pH 7.4, MDR1-MDCK cells, apical to basolateral (A>B), 10 μM, 1 hour, read-out: Papp AB MDR1

Sequence of human Arginine Vasopressin Receptor 1a (AVPR1a) (P37288 whole entry): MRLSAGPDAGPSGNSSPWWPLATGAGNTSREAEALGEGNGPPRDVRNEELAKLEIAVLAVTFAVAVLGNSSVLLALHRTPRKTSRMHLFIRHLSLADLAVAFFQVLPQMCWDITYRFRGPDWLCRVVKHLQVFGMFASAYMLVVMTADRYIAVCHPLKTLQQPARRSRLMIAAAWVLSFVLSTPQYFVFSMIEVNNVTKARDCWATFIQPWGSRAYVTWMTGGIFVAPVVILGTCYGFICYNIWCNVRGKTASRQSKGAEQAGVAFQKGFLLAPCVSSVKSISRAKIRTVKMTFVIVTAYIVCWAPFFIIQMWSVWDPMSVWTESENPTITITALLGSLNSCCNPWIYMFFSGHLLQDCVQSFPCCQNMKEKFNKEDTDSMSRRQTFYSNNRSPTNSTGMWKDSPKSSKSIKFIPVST
Sequence of human Oxytocin Receptor (hOTR) (P30559 whole entry): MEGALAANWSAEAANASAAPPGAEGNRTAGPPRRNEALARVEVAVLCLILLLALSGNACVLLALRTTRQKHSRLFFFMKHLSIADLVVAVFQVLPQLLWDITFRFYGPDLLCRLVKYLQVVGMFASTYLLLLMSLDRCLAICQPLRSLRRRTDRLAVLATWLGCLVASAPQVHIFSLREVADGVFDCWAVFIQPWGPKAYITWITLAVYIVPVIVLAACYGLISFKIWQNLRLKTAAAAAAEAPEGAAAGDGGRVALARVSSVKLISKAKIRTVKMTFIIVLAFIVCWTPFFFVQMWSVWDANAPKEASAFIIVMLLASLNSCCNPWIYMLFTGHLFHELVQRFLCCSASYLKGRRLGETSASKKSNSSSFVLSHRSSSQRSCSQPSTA

Row | SMILES | Papp AB WT [1] | IC50 [2] [nM] | Papp AB MDR1 [3] | WT ER [1] | Papp A→B at 1 h, 10 μM ([4]; pH 7.4, Papp AB WT) [×10⁻⁶ cm/s] | Papp A→B at 1 h, 10 μM [5, 7] [×10⁻⁶ cm/s] | MDR1 EER [3] | MDR1 ER [3] | Papp A→B at 1 h, 10 μM [4, 8] [×10⁻⁶ cm/s] | IC50 [6] [nM] | Papp A→B at 1 h, 10 μM [5, 9] [×10⁻⁶ cm/s]
1 | CCOC(=O)N1Cc2cc(Cl)ccc2-n2c(C3CC4(C3)CN(c3ncc(F)cn3)C4)nnc2C1C (single isomer, unassigned) [Cpd 172A] | ++++ ((++++) denotes >20 (10^-6 cm/sec)) | < 100 | ++++ ((++++) denotes >20 (10^-6 cm/sec)) |  |  |  |  |  |  |  | 
2 | COC(=O)N1Cc2cc(Cl)ccc2-n2c(C3CC4(C3)CN(c3ccncn3)C4)nnc2C1C (single isomer, unassigned) [Cpd 184A] | ++++ ((++++) denotes >20 (10^-6 cm/sec)) | < 100 |  |  |  |  |  |  |  |  | 
3 | CC1c2nnc(C3CC4(C3)CN(c3ccc(F)cn3)C4)n2-c2ccc(Cl)cc2CN1C(=O)OC(CF)CF (stereo not shown) [compound 203] |  |  |  | +++ | > 20 | 10 to 20 | +++ | ++ |  |  | 
4 | O=C(C1CC1)N1CC2(CC(c3nnc4n3-c3ccc(Cl)cc3CN(C(=O)C(F)(F)F)C4)C2)C1 [compound 137] |  | < 100 |  | + | < 7 | < 7 | + | + |  |  | 
5 | CC(C)OC(=O)N1Cc2cc(Cl)ccc2-n2c(nnc2C2CC3(C2)CN(C(=O)C2(F)CC2)C3)C1 [compound 147] |  | < 100 |  | + | < 7 | < 7 | + | + |  |  | 
6 | O=C(C1COC1)N1Cc2cc(Cl)ccc2-n2c(nnc2C2CC3(C2)CN(c2ccc(F)cn2)C3)C1 [compound 160] |  | < 100 |  | + | < 7 | < 7 | + | + |  |  | 
7 | CC(C)OC(=O)N1Cc2cc(Cl)ccc2-n2c(C3CC4(C3)CN(c3ccc(F)cn3)C4)nnc2C1C (stereo not shown) [compound 163] |  | < 100 |  | ++++ | > 20 | > 20 | +++ | +++ |  |  | 
8 | COC(=O)N1Cc2cc(Cl)ccc2-n2c(nnc2C2CC3(C2)CN(c2cccc(C#N)n2)C3)C1 [compound 91, methyl 8-chloro-1-(2-(6-cyanopyridin-2-yl)-2-azaspiro[3.3]heptan-6-yl)-4H-benzo[f][1,2,4]triazolo[4,3-a][1,4]diazepine-5(6H)-carboxylate] |  | < 100 |  |  |  |  |  |  | > 20 | 500 to 1000 | < 7
9 | CC1c2nnc(C3CC4(C3)CN(c3ccc(F)cn3)C4)n2-c2ccc(Cl)cc2CN1C(=O)C(F)F (stereo not shown) [compound 176] |  | < 100 |  | ++++ | > 20 | 7 to 10 | + | + |  |  | 
10 | CC1c2nnc(C3CC4(C3)CN(c3ncccn3)C4)n2-c2ccc(Cl)cc2CN1C(=O)OC(CF)CF (stereo not shown) [compound 202] |  |  |  | ++++ | > 20 | < 7 | + | + |  |  | 
11 | COC(=O)N1Cc2cc(Cl)ccc2-n2c(nnc2C2CC3(C2)CN(C(=O)C2CC2)C3)C1 [compound 162] |  | < 100 |  | + | < 7 | < 7 | + | + |  |  | 
12 | COC(=O)N1Cc2cc(Cl)ccc2-n2c(nnc2C2CC3(C2)CN(c2cccnn2)C3)C1 [compound 75] |  | < 100 |  |  | 10 to 20 | < 7 | + | + |  |  | 
13 | CC(C)OC(=O)N1Cc2cc(Cl)ccc2-n2c(nnc2C2CC3(C2)CN(c2ccc(F)cn2)C3)C1 [compound 111] |  | < 100 |  |  |  |  |  |  | > 20 | 100 to 500 | > 20
14 | COc1ccc2c(c1)CN(C)Cc1nnc(C3CC4(C3)CN(c3cnccn3)C4)n1-2 [compound 19] |  |  |  | +++ | > 20 | < 7 | + | + |  |  | 
15 | COC(=O)N1Cc2cc(Cl)ccc2-n2c(nnc2C2CC3(C2)CN(c2cccc(C)n2)C3)C1 [compound 115] |  | < 100 |  | +++ | > 20 | 10 to 20 | + | + |  |  | 
16 | CN1Cc2cc(Cl)ccc2-n2c(nnc2C2CC3(C2)CN(C(=O)C2(F)CC2)C3)C1 [compound 36] |  | < 100 |  | ++ | 10 to 20 | < 7 | + | + |  |  | 
17 | CC1c2nnc(C3CC4(C3)CN(c3ncc(F)cn3)C4)n2-c2ccc(Cl)cc2CN1C(=O)OC(CF)CF (single isomer, unassigned) [Cpd 194A] | ++++ ((++++) denotes >20 (10^-6 cm/sec)) | < 100 |  |  |  |  |  |  |  |  | 
18 | CC1c2nnc(C3CC4(C3)CN(c3ccc(F)cn3)C4)n2-c2ccc(Cl)cc2CN1C (stereo not shown) [compound 179] |  | 100 to 500 |  | +++ | > 20 | > 20 | ++ | + |  |  | 
19 | CC1c2nnc(C3CC4(C3)CN(c3ccc(F)cn3)C4)n2-c2ccc(Cl)cc2CN1C(=O)OC1CCC1 (stereo not shown) [compound 195] |  |  |  | +++ | 10 to 20 | > 20 | ++++ | +++ |  |  | 
20 | CC(C)OC(=O)N1Cc2cc(Cl)ccc2-n2c(C3CC4(C3)CN(c3ccncn3)C4)nnc2C1C (stereo not shown) [compound 187] |  | 100 to 500 |  | ++++ | > 20 | > 20 |  | ++ |  |  | 
21 | CC1c2nnc(C3CC4(C3)CN(c3ncccn3)C4)n2-c2ccc(Cl)cc2CN1C(=O)OC(CF)CF (single isomer, unassigned) [Cpd 202B] | ++++ ((++++) denotes >20 (10^-6 cm/sec)) | > 1000 | + ((+) denotes an apparent permeability <7 (10^-6 cm/sec)) |  |  |  |  |  |  | > 1000 | 
22 | CC1c2nnc(C3CC4(C3)CN(c3ncc(F)cn3)C4)n2-c2ccc(Cl)cc2CN1C(=O)OC1CC1 (stereo not shown) [compound 192] |  | < 100 |  | +++ | > 20 | > 20 | +++ | +++ |  |  | 
